{
  "source": "patent US7718700B2",
  "about": "“Growth factor-binding compounds and methods of use” (Yale University, priority 2004, dated 2010)",
  "key": {"VEGF": {"target": "T1, VEGF (Homo sapiens, UniProt P15692)", "T1 sequence (P15692 27-191 isoform P15692-4)": "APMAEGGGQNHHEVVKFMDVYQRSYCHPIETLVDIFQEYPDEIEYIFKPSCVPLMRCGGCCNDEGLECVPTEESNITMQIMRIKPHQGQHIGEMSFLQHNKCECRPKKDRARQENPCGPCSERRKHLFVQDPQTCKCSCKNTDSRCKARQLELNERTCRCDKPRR", "test": "Tryptophan fluorescence titration of VEGF", "format": "binding", "details": "emission at 334 nm", "description": "(§1) FIGS. 2D and 2E illustrate that GFB-204 binds PDGF and VEGF as indicated by growth factor tryptophan when increased amounts of GFB204 were added to PDGF and VEGF, respectively. The fluorescence was monitored by excitation at 295 nm and 228 nm, respectively, and emission at 334 nm.\n(§2) Both VEGF and PDGF contain tryptophans that fluoresce at […] when excited at […]."}, "EGFR": {"target": "T2, EGFR (Homo sapiens, UniProt P00533)", "T2 construct": "expressed in transfected cells; host or cells: NIH 3T3 (EGFR/NIH 3T3)", "T2 sequence (P00533 25-1210)": "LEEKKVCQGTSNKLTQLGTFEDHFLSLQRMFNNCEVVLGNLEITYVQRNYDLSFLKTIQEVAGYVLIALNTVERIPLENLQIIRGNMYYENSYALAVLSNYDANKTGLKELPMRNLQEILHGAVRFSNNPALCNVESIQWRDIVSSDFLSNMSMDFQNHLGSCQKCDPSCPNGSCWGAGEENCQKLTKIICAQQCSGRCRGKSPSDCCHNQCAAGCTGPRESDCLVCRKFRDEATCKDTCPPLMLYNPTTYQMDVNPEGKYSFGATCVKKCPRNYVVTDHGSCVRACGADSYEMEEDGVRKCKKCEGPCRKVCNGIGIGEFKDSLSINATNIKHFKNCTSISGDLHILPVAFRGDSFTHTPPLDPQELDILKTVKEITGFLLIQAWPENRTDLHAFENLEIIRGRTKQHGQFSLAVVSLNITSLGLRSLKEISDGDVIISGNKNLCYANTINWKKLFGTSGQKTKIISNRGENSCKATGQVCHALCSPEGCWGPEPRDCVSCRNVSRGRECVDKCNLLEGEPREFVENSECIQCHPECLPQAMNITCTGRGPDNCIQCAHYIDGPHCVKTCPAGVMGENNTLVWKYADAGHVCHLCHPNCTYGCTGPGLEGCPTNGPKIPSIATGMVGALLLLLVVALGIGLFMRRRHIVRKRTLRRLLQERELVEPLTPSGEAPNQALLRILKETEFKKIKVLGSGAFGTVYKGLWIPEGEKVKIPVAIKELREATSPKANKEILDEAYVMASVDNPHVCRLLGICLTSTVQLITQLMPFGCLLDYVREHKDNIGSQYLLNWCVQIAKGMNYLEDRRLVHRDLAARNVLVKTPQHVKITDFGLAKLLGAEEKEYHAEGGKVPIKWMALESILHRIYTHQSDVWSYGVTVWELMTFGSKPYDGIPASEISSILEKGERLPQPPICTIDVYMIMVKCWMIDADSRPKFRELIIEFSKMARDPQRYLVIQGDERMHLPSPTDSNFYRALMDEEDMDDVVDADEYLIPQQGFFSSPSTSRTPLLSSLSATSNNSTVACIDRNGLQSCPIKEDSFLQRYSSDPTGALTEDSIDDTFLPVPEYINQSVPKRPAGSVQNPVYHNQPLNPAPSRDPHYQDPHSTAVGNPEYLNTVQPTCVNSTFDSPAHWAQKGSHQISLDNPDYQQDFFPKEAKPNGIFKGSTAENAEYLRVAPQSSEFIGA", "test": "125I-EGF binding to its receptor on EGFR/NIH 3T3 cells", "details": "concentrations as high as 100 μM", "description": "(§3) Flk-1/NIH 3T3, NIH 3T3 and EGFR/NIH 3T3 cells were incubated with ^125I-VEGF, ^125I-PDGF and ^125I-EGF (50,000 cpm/well) respectively, along with increasing concentrations of GFB204. Cells were incubated at 4° C. for 0.5 hours, then washed three times with PBS and three times with lysis buffer prior to determining ^125I counts as described under Materials and Methods. An excess of cold VEGF, PDGF, and EGF was used to obtain non-specific binding levels. FIGS. 2A-2C show specific binding (% control) for PDGFR, Flk-1, and EGFR, respectively.\n(§4) Binding of ^125I-growth factors to their receptors. The binding assay of ^125I-VEGF, ^125I-PDGF and ^125I-EGF to their respective receptors was carried out as described previously (Blaskovich, M. A. et al. Nat Biotechnol, 2000, 18:1065-70. Briefly, Flk-1/NIH 3T3 cells, NIH 3T3 cells and EGFR/NIH 3T3 cells were incubated with ^125I-VEGF, ^125I-PDGF and ^125I-EGF (50,000 cpm/well), respectively, and increasing concentrations of GFB204. Cells were incubated at 4° C. for 0.5 hours, then washed three times with PBS and three times with 25 mM Tris, pH 8.0, 1% Triton-X-100, 10% glycerol, and 1% SDS prior to determining ^125I counts on a gamma counter (Beckmann Inc.). An excess of cold growth factors were used to obtain nonspecific binding levels."}, "PDGFR": {"test_system": "PDGFR", "test": "125I-PDGF binding to its receptor on NIH 3T3 cells", "set-up": "species or system mouse", "details": "4° C., 0.5 hours, read-out: IC50 inhibition of [I-125]PDGF binding to its receptor", "description": "as §3, §4"}, "[1]": {"test_system": "IGF-1-stimulated Erk1, Erk2, Akt and STAT3 phosphorylation", "test": "IGF-1-stimulated phosphorylation of Erk1/2, Akt and STAT3 in IGF-1R/NIH 3T3 cells", "format": "cell-based, mouse", "details": "GFB204 10 μM", "description": "(§5) FIGS. 3A and 3B show the effect of GFB204 on growth factor stimulated Erk1, Erk2, Akt, and STAT3 phosphorylation. GFB204 inhibits VEGF and PDGF stimulation of Flk-1 tyrosine phosphorylation and Erk1/Erk2 phosphorylation (FIG. 3A). NIH 3T3 cells or Flk-1/NIH 3T3 cells were treated with increasing concentrations of GFB204 for 5 minutes prior to stimulation with PDGFBB (10 ng/ml) or VEGF (50 ng/ml), respectively, for 10 minutes. The cells were then lysed and processed for SDS-PAGE Western blotting with an antibody specific for phosphotyrosine-Flk-1 or anti-phosphotyrosine for PDGFR tyrosine phosphorylation or phospho-Erk1/2. GFB204 effects on growth factor-stimulated Erk1, Erk2, Akt and STAT3 phosphorylation (FIG. 3B). NIH 3T3, Flk-1/NIH 3T3, IGF-1R/NIH 3T3 or EGFR/NIH 3T3 cells were treated with GFB204 (10 μM) prior to stimulation with PDGF (NIH 3T3) VEGF (Flk-1/NIH 3T3), EGF (EGFR/NIH 3T3), bFGF (NIH 3T3) or IGF-1 (IGF-1R/NIH 3T3). The cells were then harvested and processed for SDS-PAGE Western blotting with antibodies specific for phospho-Erk1/2, phospho-Akt and phospho-STAT3.\n(§6) Growth factor-mediated stimulation of phosphorylation of Erk1/2, Akt and STAT3. […]"}, "[2]": {"test_system": "bFGF-stimulated Erk1, Erk2, Akt and STAT3 phosphorylation", "test": "bFGF-stimulated phosphorylation of Erk1/2, Akt and STAT3 in NIH 3T3 cells", "format": "cell-based, mouse", "details": "GFB204 10 μM", "description": "as §5, §6"}, "PDGF": {"target": "PDGF (Homo sapiens, UniProt P01127)", "sequence (P01127 82-190 limits assumed)": "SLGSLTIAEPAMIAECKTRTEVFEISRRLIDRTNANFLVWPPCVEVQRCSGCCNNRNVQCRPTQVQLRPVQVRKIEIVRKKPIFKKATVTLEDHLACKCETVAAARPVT", "test": "Tryptophan fluorescence titration of PDGF", "format": "binding", "details": "emission at 334 nm", "description": "as §1, §2"}, "[3]": {"test_system": "Human middle cerebral artery endothelial cells", "test": "VEGF-induced capillary network formation on Matrigel", "format": "cell-based", "details": "Endothelial cell, VEGF 20 ng/ml", "description": "FIGS. 4A-4C show the effects of GFB204 on angiogenesis in vitro. GFB204 inhibits capillary network formation in a dose-response manner (FIG. 4C). Human middle cerebral artery endothelial cells (5×10^4) were seeded onto Matrigel and the cells were incubated with VEGF in the presence (FIG. 4B) or absence (FIG. 4A) of GFB204 as described under Materials and Methods.\nCapillary network formation. 200 μl of Matrigel was placed into each well of a 24-well culture plate at 4° C. and allowed to polymerize by incubation at 37° C. as described previously (Papadimitriou, E. et al. Biochem Biophys Res Commun, 2001, 282:306-13). Human middle cerebral artery endothelial cells (5×10^4) were seeded on the Matrigel in 1 ml of EBM containing VEGF (20 ng/ml). Each sample was photographed using a 10× objective lens, and quantified the total length of tube structures in each photograph using the Image Pro Plus software (Media Cybernetic, Inc., Md.)."}},
  "note": "Values joined by “and” are separate entries in the source; they are usually repeats but may differ in a detail not shown here. Identical values can stand only once.",
  "data": [
    {"smiles": "CCCCOc1c2cc(C(=O)Nc3cc(C(=O)O)cc(C(=O)OCc4ccccc4)c3)cc1Cc1cc(C(=O)Nc3cc(C(=O)O)cc(C(=O)OCc4ccccc4)c3)cc(c1OCCCC)Cc1cc(C(=O)Nc3cc(C(=O)O)cc(C(=O)OCc4ccccc4)c3)cc(c1OCCCC)Cc1cc(C(=O)Nc3cc(C(=O)O)cc(C(=O)OCc4ccccc4)c3)cc(c1OCCCC)C2", "note": "[GFB204]", "values": [
      {"measurement": "binding to VEGF by tryptophan fluorescence titration", "setting": "VEGF", "value": "binds both PDGF and VEGF"},
      {"measurement": "[I-125]EGF binding to its receptor", "setting": "EGFR", "value": "not affected"},
      {"measurement": "IC50", "setting": "PDGFR", "value": "154 nM and 200 to 500 nM"},
      {"measurement": "IGF-1-stimulation of the phosphorylation of Erk1, Erk2, Akt and STAT3", "setting": "[1]", "value": "had little effect and not"},
      {"measurement": "bFGF-stimulation of the phosphorylation of Erk1, Erk2, Akt and STAT3", "setting": "[2]", "value": "had little effect and not"},
      {"measurement": "binding to PDGF by tryptophan fluorescence titration", "setting": "PDGF", "value": "binds both PDGF and VEGF"},
      {"measurement": "IC50", "setting": "[3]", "value": 700, "unit": "nM"}
    ]}
  ]
}
